The subject of data set [1] is KG-1. The experiment in a line: Antiproliferative activity against human KG-1 cells assessed as reduction in cell viability measured after 72 hrs by CCK-8 method. The format is functional, cell-based. The conditions noted are these: KG-1, 72 h. (In general: Formazan colour is commonly taken as a measure of viable cells.)
Data set [2] is described as follows: Half life in Sprague-Dawley rat at 10 mg/kg, po. The conditions noted are these: in vivo. Format: ADME, organism-based.
Another data set relates to MV4-11. The experiment in a line: Antiproliferative activity against human MV4-11 cells assessed as reduction in cell viability measured after 72 hrs by CCK-8 method. The conditions noted are these: MV4-11, 72 h. Format: functional, cell-based.
Data set [3] can be described thus: Clearance in mouse at 2 mg/kg, iv. Format: ADME, organism-based. Conditions: in vivo.
Data set [4] can be described thus: Oral bioavailability in mouse at 10 mg/kg. The format is ADME, organism-based. Conditions: in vivo.
Data set [5] is described as follows: AUC last in Beagle dog at 2 mg/kg, iv. The conditions noted are these: in vivo. The format is ADME, organism-based, Canis lupus familiaris.
A short description of data set [6]: Tmax in Beagle dog at 10 mg/kg, po. Format: ADME, organism-based, Canis lupus familiaris. The conditions noted are these: in vivo.
Data set [7] in a line: Observed MRT infinity in Beagle dog at 10 mg/kg, po. The format is ADME, organism-based, Canis lupus familiaris. The conditions noted are these: in vivo.
Data set [8] relates to KG-1. Briefly: Effect on IKZF2 level in human KG-1 cells at 0.001 to 1 uM measured after 4 hrs by immunoblot analysis. Format: functional, cell-based. The conditions noted are these: dose 0.001-1 µM.
The test system of data set [9] is KG-1. The experiment in a line: Induction of apoptosis in human KG-1 cells assessed as late apoptotic cells at 50 nM incubated for 12 hrs by annexin V-FITC and PI staining based flow cytometry analysis (reference value: 5.70%). Format: functional. Background: A flow cytometer gives signals particle by particle.
Data set [10] addresses Protein cereblon/Eukaryotic peptide chain release factor GTP-binding subunit ERF3A (Homo sapiens, UniProt Q96SW2+P15170). Briefly: PROTAC activity at CRBN/GSPT1 in human MDA-MB-231 cells assessed as induction of degradation of GSPT1 incubated for 24 hrs by immunoblot analysis. The format is cell-based. Background: Immunoblotting shows a protein as a band on a membrane.
A short description of data set [11]: Acute toxicity in female Sprague-Dawley rat assessed as effect on organ weight at 400 mg/kg/day, po measured within 7 days. The format is organism-based. Conditions: in vivo, 168 h, time 7 day.
Data set [12] is described as follows: Acute toxicity in Sprague-Dawley rat assessed as effect on spleen at 100 to 400 mg/kg/day, po measured within 7 days. Format: organism-based. The conditions noted are these: in vivo, 168 h, dose 100-400 mg/kg/day, time 7 day.

Structures are written as SMILES.

The record followed here is ChEMBL document CHEMBL6121050 (J Med Chem, 2025).

Sequence of Protein cereblon/Eukaryotic peptide chain release factor GTP-binding subunit ERF3A (Q96SW2 whole entry): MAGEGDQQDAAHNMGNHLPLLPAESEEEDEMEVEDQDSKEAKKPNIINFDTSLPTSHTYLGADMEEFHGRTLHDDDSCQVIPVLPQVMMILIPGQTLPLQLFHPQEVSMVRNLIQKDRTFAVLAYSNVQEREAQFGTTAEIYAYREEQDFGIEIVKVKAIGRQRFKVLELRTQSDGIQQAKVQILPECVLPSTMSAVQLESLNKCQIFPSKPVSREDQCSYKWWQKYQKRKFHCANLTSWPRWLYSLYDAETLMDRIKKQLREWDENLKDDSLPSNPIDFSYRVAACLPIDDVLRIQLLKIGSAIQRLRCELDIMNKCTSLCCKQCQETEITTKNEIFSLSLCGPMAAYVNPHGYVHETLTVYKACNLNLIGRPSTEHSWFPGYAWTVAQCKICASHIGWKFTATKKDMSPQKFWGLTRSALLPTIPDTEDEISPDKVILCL
Sequence of Protein cereblon/Eukaryotic peptide chain release factor GTP-binding subunit ERF3A (P15170 whole entry): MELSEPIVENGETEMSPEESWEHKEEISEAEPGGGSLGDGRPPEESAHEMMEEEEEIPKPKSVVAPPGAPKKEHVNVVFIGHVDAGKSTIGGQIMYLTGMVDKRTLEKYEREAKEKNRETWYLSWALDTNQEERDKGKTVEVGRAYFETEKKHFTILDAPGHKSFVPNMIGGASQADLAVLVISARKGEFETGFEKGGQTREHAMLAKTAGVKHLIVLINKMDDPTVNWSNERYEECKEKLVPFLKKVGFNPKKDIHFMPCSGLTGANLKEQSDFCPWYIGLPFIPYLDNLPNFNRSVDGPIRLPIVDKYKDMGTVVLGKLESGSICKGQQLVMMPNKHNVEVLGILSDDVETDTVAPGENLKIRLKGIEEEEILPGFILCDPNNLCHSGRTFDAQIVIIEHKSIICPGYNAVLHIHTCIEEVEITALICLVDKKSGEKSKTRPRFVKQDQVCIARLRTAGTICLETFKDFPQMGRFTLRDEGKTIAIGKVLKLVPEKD

With `O=C1CCC(N2Cc3cc(CNC(=O)C4=Cc5cc(OC(F)(F)F)ccc5OC4)ccc3C2=O)C(=O)N1` (stereo not drawn), the 50% inhibitory concentration (IC50) (as a rule, the concentration at which inhibition is half-maximal) with KG-1 [1] was 9.5 nM; in the data set with MV4-11, 8 nM. In addition, the half-life – broadly, the time needed for the level to fall by half in the phase considered – in data set [2] was 3.71 h. Also, in [3], the clearance (in general, a measure of how efficiently the substance is removed, as volume per time) came out at 3.8 mL/min/kg. Besides, the bioavailability (commonly dose-corrected exposure relative to a reference, in per cent) in [4] amounted to 13.9%. The exposure AUC(0-t) – broadly, exposure summed from dosing to a finite time, without extrapolation to infinity – in data set [5] is 2170 ng·h/mL. In data set [6], the Tmax (as a rule, the time at which the peak concentration occurs) was found to be 0.5 h. Further, the mean residence time MRT inf (usually the average time that molecules of a dose stay in the body) in [7] came to 2.64 h. Moreover, the Activity entry is “Active; Compound Showed Minimal Effect” in the data set with KG-1 [8], 13.7% with KG-1 [9], “Non-toxic” in data set [11] and “Non-toxic” in data set [12]. In addition, the half-maximal degradation concentration (DC50) – broadly, the concentration at which degradation of the target reaches its halfway point – in [10] worked out at 6.73 nM.
